Measurements as given in PMC6302903, “Protein and Chemical Determinants of BL-1249 Action and Selectivity for K2P Channels” (ACS Chemical Neuroscience, 2018).

Biological target: T1, K2P2.1(TREK-1) F185L (Mus musculus, UniProt P97438, F200L)
T1 construct: expressed in transfected cells; host or cells: Xenopus laevis oocytes, mRNA injected
Assay: TEVC of K2P2.1(TREK-1) mutant F185L
Type: cell-based
Settings: Xenopus oocytes
Source text: To identify K2P2.1(TREK-1) M2 residues that might participate in the BL-1249 response, we mapped the residues that differ between K2P2.1(TREK-1) and K2P4.1(TRAAK) in the context of the K2P2.1(TREK-1) structure[6] (Figure 5B,C). Two K2P2.1(TREK-1) M2 residues stood out as candidates that could explain the reduction in BL-1249 response when the entire M2 helix was replaced with M2 from K2P4.1(TRAAK). One is at the M2/M4 interface and occurs between Phe172 and Arg297 via a π–cation interaction that would be lost when Phe172 is replaced with the equivalent K2P4.1(TRAAK) residue Met134 (Figure 5C, right inset). […] To assess the importance of these interactions in the context of BL-1249 response, we made the K2P2.1(TREK-1) mutants F172M and F185L and measured their responses to BL-1249 (Figure 5D). […]
Xenopus laevis oocytes were harvested in accordance with UCSF IACUC protocol AN129690 and digested in calcium-free ND-96 (96 mM NaCl, 2 mM KCl, 3.8 mM MgCl2) immediately following harvest, as previously described.[6],[10] […] Defolliculated stage V–VI oocytes were injected with 0.2–6.0 ng of mRNA in 50 nL, and currents were recorded 24–48 h after injection. mRNA was synthesized from plasmid DNA using mMessage mMachine Kit (T7 promoter, Ambion, Life Technologies) and purified using RNEasy Kit (Qiagen). […]

T1 sequence (P97438 1-411 isoform P97438-2 F185L): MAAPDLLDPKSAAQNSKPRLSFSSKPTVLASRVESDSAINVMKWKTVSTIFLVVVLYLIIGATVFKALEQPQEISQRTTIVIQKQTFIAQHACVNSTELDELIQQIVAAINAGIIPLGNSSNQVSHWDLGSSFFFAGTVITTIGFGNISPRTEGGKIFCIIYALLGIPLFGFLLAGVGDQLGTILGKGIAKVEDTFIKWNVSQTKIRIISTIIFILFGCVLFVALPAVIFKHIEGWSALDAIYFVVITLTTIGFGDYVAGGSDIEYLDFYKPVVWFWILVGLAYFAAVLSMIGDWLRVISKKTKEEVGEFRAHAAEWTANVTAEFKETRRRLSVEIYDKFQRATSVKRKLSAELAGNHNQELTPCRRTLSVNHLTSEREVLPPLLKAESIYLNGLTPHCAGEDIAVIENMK

`c1ccc(-c2nnn[nH]2)c(Nc2cccc3c2CCCC3)c1` [BL-1249, (5,6,7,8-tetrahydro-naphthalen-1-yl)-[2-(1H-tetrazol-5-yl)-phenyl]-amine] showed an EC50 of 27 ± 5 µM.
